Reference: patent US20230085307A1, “PYRIDAZINONE COMPOUND AND HERBICIDE” (NISSAN CHEMICAL CORPORATION, priority 2019, published 2023)

What was measured:
late watergrass = assay: Test Example 1: herbicidal activity, application before weed generation under submerged conditions (Table 16, symbol A); type: in vivo, late watergrass (Echinochloa oryzicola); conditions: amount of applied herbicide 320 g/ha
Method in brief: (§1)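 Submerged Wagner pots (alluvial soil, 4 cm water) sown with weed seeds and planted with 2.5-leaf rice seedlings; emulsifiable concentrate diluted in water applied to water surface on sowing day. Held in greenhouse at 25-30 °C; injury scored 0-5 by herbicidal rate after three weeks.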

Japanese bulrush = assay: Test Example 1: herbicidal activity, application before weed generation under submerged conditions (Table 16, symbol B); type: in vivo, Japanese bulrush (Schoenoplectus juncoides); conditions: amount of applied herbicide 320 g/ha
Method in brief: as §1

oval-leafed pondweed = assay: Test Example 1: herbicidal activity, application before weed generation under submerged conditions (Table 16, symbol C); type: in vivo, oval-leafed pondweed (Monochoria vaginalis); conditions: amount of applied herbicide 320 g/ha
Method in brief: as §1

barnyard grass [1] = assay: Test Example 3: herbicidal effect by foliage application, Wagner pot (Table 18, symbol H); type: in vivo, barnyard grass (Echinochloa crus-galli); conditions: amount of applied herbicide 320 g/ha
Method in brief: (§2)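 Plants were sown in alluvial soil held under 0.1–0.5 cm standing water and grown 14 days in a greenhouse at 25–30 °C. An emulsifiable formulation, water-diluted to the set dose, was then sprayed onto the foliage, and effects were scored three weeks later using previously defined criteria.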

Chinese sprangletop = assay: Test Example 3: herbicidal effect by foliage application, Wagner pot (Table 18, symbol D); type: in vivo, chinese sprangletop (Leptochloa chinensis); conditions: amount of applied herbicide 320 g/ha
Method in brief: as §2

rice flat sedge = assay: Test Example 3: herbicidal effect by foliage application, Wagner pot (Table 18, symbol E); type: in vivo, rice flat sedge (Cyperus iria); conditions: amount of applied herbicide 320 g/ha
Method in brief: as §2

southern crabgrass = assay: Test Example 5: herbicidal effect by foliage application, plastic box (Table 20, symbol F); type: in vivo, southern crabgrass (Digitaria ciliaris); conditions: foliage application, 320 g/ha, three weeks after application
Method in brief: (§3)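 Foliar spray test: emulsion formulation diluted in water to a set application rate, sprayed onto 14-day-old plants raised in diluvial soil at 25° C to 30° C under glass. Both herbicidal effect and crop effect rated visually three weeks later.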

green foxtail = assay: Test Example 5: herbicidal effect by foliage application, plastic box (Table 20, symbol G); type: in vivo, green foxtail (Setaria viridis); conditions: foliage application, 320 g/ha, three weeks after application
Method in brief: as §3

barnyard grass [2] = assay: Test Example 5: herbicidal effect by foliage application, plastic box (Table 20, symbol H); type: in vivo, barnyard grass (Echinochloa crus-galli); conditions: foliage application, 320 g/ha, three weeks after application
Method in brief: as §3

wild oat = assay: Test Example 5: herbicidal effect by foliage application, plastic box (Table 20, symbol I); type: in vivo, wild oat (Avena fatua); conditions: foliage application, 320 g/ha, three weeks after application
Method in brief: as §3

blackgrass = assay: Test Example 5: herbicidal effect by foliage application, plastic box (Table 20, symbol J); type: in vivo, blackgrass (Alopecurus myosuroides); conditions: foliage application, 320 g/ha, three weeks after application
Method in brief: as §3

Italian ryegrass = assay: Test Example 5: herbicidal effect by foliage application, plastic box (Table 20, symbol K); type: in vivo, Italian ryegrass (Lolium multiflorum); conditions: foliage application, 320 g/ha, three weeks after application
Method in brief: as §3

windgrass = assay: Test Example 5: herbicidal effect by foliage application, plastic box (Table 20, symbol L); type: in vivo, windgrass (Apera spica-venti); conditions: foliage application, 320 g/ha, three weeks after application
Method in brief: as §3

velvetleaf = assay: Test Example 5: herbicidal effect by foliage application, plastic box (Table 20, symbol M); type: in vivo, velvetleaf (Abutilon theophrasti); conditions: foliage application, 320 g/ha, three weeks after application
Method in brief: as §3

redroot pigweed = assay: Test Example 5: herbicidal effect by foliage application, plastic box (Table 20, symbol N); type: in vivo, redroot pigweed (Amaranthus retroflexus); conditions: foliage application, 320 g/ha, three weeks after application
Method in brief: as §3

lambsquarters = assay: Test Example 5: herbicidal effect by foliage application, plastic box (Table 20, symbol O); type: in vivo, lambsquarters (Chenopodium album); conditions: foliage application, 320 g/ha, three weeks after application
Method in brief: as §3

chickweed = assay: Test Example 5: herbicidal effect by foliage application, plastic box (Table 20, symbol P); type: in vivo, common chickweed (Stellaria media); conditions: foliage application, 320 g/ha, three weeks after application
Method in brief: as §3

persian speedwell = assay: Test Example 5: herbicidal effect by foliage application, plastic box (Table 20, symbol R); type: in vivo, Persian speedwell (Veronica persica); conditions: foliage application, 320 g/ha, three weeks after application
Method in brief: as §3

Q: Which results are given for COc1ccccc1-c1sc2cc(F)ccc2c1-c1c(OC(=O)N2CCOCC2)c(C)nn(C)c1=O [3-025]?
A: Herbicidal effect, A: late watergrass (late watergrass): 0 (Herbicidal rate of 5% or less (almost no effect)); Herbicidal effect, B: Japanese bulrush (Japanese bulrush): 0 (Herbicidal rate of 5% or less (almost no effect)); Herbicidal effect, C: oval-leafed pondweed (oval-leafed pondweed): 3 (Herbicidal rate of 40% or more and less than 70%); herbicidal effect on H: barnyard grass (barnyard grass [1]): 3 (Herbicidal rate of 40% or more and less than 70%); herbicidal effect on D: Chinese sprangletop (Chinese sprangletop): 0 (Herbicidal rate of 5% or less (almost no effect)); herbicidal effect on E: rice flat sedge (rice flat sedge): 2 (Herbicidal rate of 20% or more and less than 40%); F: southern crabgrass, herbicidal effect grade (southern crabgrass): 0 (Herbicidal rate of 5% or less (almost no effect)); G: green foxtail, herbicidal effect grade (green foxtail): 0 (Herbicidal rate of 5% or less (almost no effect)); H: barnyard grass, herbicidal effect grade (barnyard grass [2]): 0 (Herbicidal rate of 5% or less (almost no effect)); I: wild oat, herbicidal effect grade (wild oat): 0 (Herbicidal rate of 5% or less (almost no effect)); J: blackgrass, herbicidal effect grade (blackgrass): 0 (Herbicidal rate of 5% or less (almost no effect)); K: Italian ryegrass, herbicidal effect grade (Italian ryegrass): 0 (Herbicidal rate of 5% or less (almost no effect)); L: windgrass, herbicidal effect grade (windgrass): 0 (Herbicidal rate of 5% or less (almost no effect)); M: velvetleaf, herbicidal effect grade (velvetleaf): 0 (Herbicidal rate of 5% or less (almost no effect)); N: redroot pigweed, herbicidal effect grade (redroot pigweed): 1 (Herbicidal rate of 5% or more and less than 20%); O: lambsquarters, herbicidal effect grade (lambsquarters): 0 (Herbicidal rate of 5% or less (almost no effect)); P: chickweed, herbicidal effect grade (chickweed): 3 (Herbicidal rate of 40% or more and less than 70%); R: persian speedwell, herbicidal effect grade (persian speedwell): 0 (Herbicidal rate of 5% or less (almost no effect))

Q: With COc1ccccc1-c1sc2cc(F)ccc2c1-c1c(OC(=O)SC(C)(C)C)c(C)nn(C)c1=O [3-026] as the compound, how does the “Herbicidal effect, A: late watergrass” value (late watergrass) read?
A: Its value is 2 (Herbicidal rate of 20% or more and less than 40%).

Q: And the “Herbicidal effect, B: Japanese bulrush” value (Japanese bulrush)?
A: Its value is 0 (Herbicidal rate of 5% or less (almost no effect)).

Q: What about the “Herbicidal effect, C: oval-leafed pondweed” value (oval-leafed pondweed) of the same compound?
A: The value was 3 (Herbicidal rate of 40% or more and less than 70%).

Q: And the “herbicidal effect on H: barnyard grass” value (barnyard grass [1])?
A: Its value is 4 (Herbicidal rate of 70% or more and less than 90%).

Q: What about the “herbicidal effect on D: Chinese sprangletop” value (Chinese sprangletop) of the same compound?
A: Its value is 0 (Herbicidal rate of 5% or less (almost no effect)).

Q: And the “herbicidal effect on E: rice flat sedge” value (rice flat sedge)?
A: The value was 2 (Herbicidal rate of 20% or more and less than 40%).

Q: What about the “F: southern crabgrass, herbicidal effect grade” value (southern crabgrass) of the same compound?
A: Its value is 0 (Herbicidal rate of 5% or less (almost no effect)).

Q: What about the “G: green foxtail, herbicidal effect grade” value (green foxtail) of the same compound?
A: Its value is 0 (Herbicidal rate of 5% or less (almost no effect)).

Q: And the “H: barnyard grass, herbicidal effect grade” value (barnyard grass [2])?
A: The value was 0 (Herbicidal rate of 5% or less (almost no effect)).

Q: What about the “I: wild oat, herbicidal effect grade” value (wild oat) of the same compound?
A: Its value is 0 (Herbicidal rate of 5% or less (almost no effect)).

Q: What about the “J: blackgrass, herbicidal effect grade” value (blackgrass) of the same compound?
A: Its value is 0 (Herbicidal rate of 5% or less (almost no effect)).

Q: And the “K: Italian ryegrass, herbicidal effect grade” value (Italian ryegrass)?
A: Its value is 0 (Herbicidal rate of 5% or less (almost no effect)).

Q: And the “L: windgrass, herbicidal effect grade” value (windgrass)?
A: The value was 0 (Herbicidal rate of 5% or less (almost no effect)).

Q: What about the “M: velvetleaf, herbicidal effect grade” value (velvetleaf) of the same compound?
A: The value was 0 (Herbicidal rate of 5% or less (almost no effect)).

Q: What about the “N: redroot pigweed, herbicidal effect grade” value (redroot pigweed) of the same compound?
A: The value was 5 (Herbicidal rate of 90% or more (almost completely withered)).

Q: What about the “O: lambsquarters, herbicidal effect grade” value (lambsquarters) of the same compound?
A: The value was 1 (Herbicidal rate of 5% or more and less than 20%).

Q: And the “P: chickweed, herbicidal effect grade” value (chickweed)?
A: Its value is 0 (Herbicidal rate of 5% or less (almost no effect)).

Q: And the “R: persian speedwell, herbicidal effect grade” value (persian speedwell)?
A: Its value is 0 (Herbicidal rate of 5% or less (almost no effect)).
